Data: patent publication US6939554B2, “Antimicrobial polymer” (Michigan Biotechnology Institute, priority 2002, dated 2005)

Test system: potential human pathogenic microorganisms
Assay: Antimicrobial activity assay, overall assessment across target microorganisms
Type: cell-based
Conditions: among the seven antimicrobials tested, in the polymer coatings
Method: The selection of target microorganisms for examining the antimicrobial activity of the coated polydimethylsiloxane substrates produced in the Control Example and Examples 1-16 was based on the potential human pathogenic microorganisms, which include gram positive bacteria, Bacillus subtilis and Staphylococcus aureus; gram negative bacteria, E. coli and Pseudomonas aeruginosa; and yeast, Candida albicans. Broth cultures were prepared for each microorganism. Bacteria, Bacillus subtilis, Staphylococcus aureus, E. coli and Pseudomonas aeruginosa were grown in 50 milliliters of sterile tryptic soy broth in a 500 milliliter baffle flask at 200 rpm. The cultures were grown at 37° C. overnight, and used for antimicrobial activity assay plates and stock culture. The yeast, Candida albicans was cultivated in 50 milliliters of sterile yeast malt broth in a 250 milliliter baffle flask at 25-28° C. for 1 day and used for the activity assay plates and stock culture.
Antimicrobial activity assay plates were then prepared. Yeast malt agar and tryptic soy agar were autoclaved for 20 minutes. The sterile molten agar was allowed to cool to 42-45° C. The prepared broth cultures of the target microorganisms were inoculated to a final concentration of 5% (v/v). […]

In the case of [H]/N=C(\N/C(=N/[H])NCCCCCCNC(=N)NC(=N)Nc1ccc(Cl)cc1)Nc1ccc(Cl)cc1 [chlorhexidine, 1,6-bi(N^5-p-chlorophenyl-N^1-biguanido)hexane], the “Antimicrobial activity: ability to suppress the colonization and spectrum of action (in words)” value is reported as “high activity”.
